Experimental data published in ChEMBL document CHEMBL1134998, “A novel synthesis of 7-aryl-8-fluoro-pyrrolo[1,2-a]pyrimid-4-ones as potent, stable GnRH receptor antagonists” (Bioorg Med Chem Lett, 2002).
pKi: −log10 of the molar value.

Target: T1, Gonadotropin-releasing hormone receptor (Homo sapiens, UniProt P30968)
T1 sequence (P30968 whole entry): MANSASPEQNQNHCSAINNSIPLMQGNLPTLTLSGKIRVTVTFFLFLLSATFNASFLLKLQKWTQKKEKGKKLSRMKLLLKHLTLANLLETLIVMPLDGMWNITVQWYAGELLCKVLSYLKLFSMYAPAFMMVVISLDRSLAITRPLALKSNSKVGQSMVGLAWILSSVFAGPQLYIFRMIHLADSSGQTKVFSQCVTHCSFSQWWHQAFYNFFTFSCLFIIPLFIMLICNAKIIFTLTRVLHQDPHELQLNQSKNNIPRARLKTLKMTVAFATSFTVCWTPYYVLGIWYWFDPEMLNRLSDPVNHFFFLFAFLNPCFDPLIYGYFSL
Experiment: Binding affinity towards human Gonadotropin-releasing hormone receptor

| SMILES | pKi |
| --- | --- |
| CCOC(=O)c1cn(Cc2ccccc2F)c2c(F)c(-c3cccc(OC)c3)c(CN(C)CCc3ccccn3)n2c1=O | 6.70 |
| CCOC(=O)c1cn(Cc2ccccc2F)c2c(F)c(-c3cccc(OC)c3)c(CN(C)Cc3ccccc3)n2c1=O | 5.59 |
| CCOC(=O)c1cn(Cc2ccccc2F)c2c(F)c(-c3ccc(OCC(C)C)cc3)c(CN(C)Cc3ccco3)n2c1=O | 7.04 |
| CCOC(=O)c1cn(Cc2ccccc2F)c2c(F)c(-c3ccc(OCC(C)C)cc3)c(CN(C)Cc3ccccc3)n2c1=O | 7.38 |

Second part, the compound after the results:

| pKi | SMILES |
| --- | --- |
| 8.05 | CCOC(=O)c1cn(Cc2ccccc2F)c2c(F)c(-c3ccc(OCC(C)C)cc3)c(CN(C)CCc3ccccn3)n2c1=O |
| 4.62 | CCOC(=O)c1cn(Cc2ccccc2F)c2c(F)c(-c3cccc(OC)c3)c(CN(C)Cc3ccco3)n2c1=O |
